The values that follow come from patent US10898481B2 (priority 2018, dated 2021).

Structures are written as SMILES. Read-outs that look alike come from different tables or passages of the source. Where only a bound is given, the exact number is not on record here.

By IC50 is commonly meant the midpoint of a concentration-inhibition curve.

The target of one assay is hA2a/CHO (Homo sapiens (Human), UniProt P29274). In words: cAMP inhibition assay in hA2a/CHO cells, 10 μM adenosine.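 Also: compounds added to cells 30 min ahead of adenosine, then a further 30 min at 37 °C with adenosine before cAMP detection.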 The class given is cell-based.
Chain of hA2a/CHO (P29274 whole entry): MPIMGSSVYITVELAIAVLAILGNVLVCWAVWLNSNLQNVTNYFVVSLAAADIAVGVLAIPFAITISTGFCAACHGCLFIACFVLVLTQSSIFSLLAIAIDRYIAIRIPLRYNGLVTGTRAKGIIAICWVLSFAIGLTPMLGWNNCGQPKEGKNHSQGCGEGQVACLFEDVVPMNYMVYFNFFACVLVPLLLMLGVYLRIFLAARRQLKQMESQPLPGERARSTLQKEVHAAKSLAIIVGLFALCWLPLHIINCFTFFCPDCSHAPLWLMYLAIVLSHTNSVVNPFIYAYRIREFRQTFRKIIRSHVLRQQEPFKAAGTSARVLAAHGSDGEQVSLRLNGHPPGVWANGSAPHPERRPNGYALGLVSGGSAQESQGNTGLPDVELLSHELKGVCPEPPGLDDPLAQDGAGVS
A further assay deals with mA2a/CHO (Mus musculus (Mouse), UniProt Q60613). In words: cAMP inhibition assay in mA2a/CHO cells, 10 μM adenosine.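 Also: compounds preincubated 30 min at 37 °C before the adenosine challenge, then 30 min further stimulation, readout after 60 min detection reagent incubation at room temperature in 384-well plates.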 The format is cell-based.
Chain of mA2a/CHO (Q60613 whole entry): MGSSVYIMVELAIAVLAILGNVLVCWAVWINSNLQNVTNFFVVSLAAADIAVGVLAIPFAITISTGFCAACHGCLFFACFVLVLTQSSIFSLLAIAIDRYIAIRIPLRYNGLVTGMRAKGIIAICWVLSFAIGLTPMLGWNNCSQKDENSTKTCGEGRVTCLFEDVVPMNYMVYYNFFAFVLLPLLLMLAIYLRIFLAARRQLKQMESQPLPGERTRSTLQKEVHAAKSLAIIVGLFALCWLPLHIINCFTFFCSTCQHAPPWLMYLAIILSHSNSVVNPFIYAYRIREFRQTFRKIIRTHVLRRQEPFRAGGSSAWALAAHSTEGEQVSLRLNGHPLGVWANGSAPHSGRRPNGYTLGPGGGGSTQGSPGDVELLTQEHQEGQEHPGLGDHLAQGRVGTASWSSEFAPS
In another assay the target is hA2b/CHO (Homo sapiens (Human), UniProt P29275). In words: cAMP inhibition assay in hA2b/CHO cells, 10 μM adenosine.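 Also: cells exposed to compound 30 min at 37 °C, then stimulated with adenosine a further 30 min, cAMP read after 60 min at room temperature.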 The format is cell-based.
Chain of hA2b/CHO (P29275 whole entry): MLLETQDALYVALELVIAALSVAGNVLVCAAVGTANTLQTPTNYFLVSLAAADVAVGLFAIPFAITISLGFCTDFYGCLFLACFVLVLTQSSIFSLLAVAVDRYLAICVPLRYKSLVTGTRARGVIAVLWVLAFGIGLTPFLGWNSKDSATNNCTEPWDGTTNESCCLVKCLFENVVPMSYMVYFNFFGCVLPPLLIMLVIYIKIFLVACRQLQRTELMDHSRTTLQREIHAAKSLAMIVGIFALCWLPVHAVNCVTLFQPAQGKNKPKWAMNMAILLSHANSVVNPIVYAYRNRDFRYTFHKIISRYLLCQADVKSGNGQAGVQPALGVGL
Assay [1] concerns the target hADORA1/CHO (hA1 expressing) cells (Homo sapiens (Human), UniProt P30542). As to the kind of experiment: cell-based. The following applies: 10 μM adenosine.
Setting [2] is: read-out: cAMP & FLIPR IC50 (nM) hA2a.
[3] abbreviates: read-out: cAMP & FLIPR IC50 (nM) mA2a.
The mark [4] stands for this setting: read-out: cAMP & FLIPR IC50 (nM) hA2b.
Where [5] appears, read: FLIPR inhibition, read-out: cAMP & FLIPR IC50 (nM) hA1.

Chain of hADORA1/CHO (hA1 expressing) cells (P30542 whole entry): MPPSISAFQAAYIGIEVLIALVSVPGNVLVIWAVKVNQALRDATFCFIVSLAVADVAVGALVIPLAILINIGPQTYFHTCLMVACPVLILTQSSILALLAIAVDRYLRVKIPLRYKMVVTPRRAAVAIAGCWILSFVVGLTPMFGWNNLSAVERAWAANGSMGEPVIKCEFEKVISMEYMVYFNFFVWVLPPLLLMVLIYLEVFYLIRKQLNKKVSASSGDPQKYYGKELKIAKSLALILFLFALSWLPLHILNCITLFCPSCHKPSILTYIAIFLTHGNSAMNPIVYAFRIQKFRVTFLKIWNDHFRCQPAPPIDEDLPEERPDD
Method for hA2a/CHO: (§1) hA2a/CHO, hA2b/CHO, hA3/CHO and mA2a/CHO (Genscript) were plated at 5×10^3 cells/well into 384-well polystyrene plates at the day of experiment. Compounds were pre-incubated with cells for 30 min at 37° C., 5% CO2. Then 10 μM adenosine was added to the cells and incubated for 30 min at 37° C., 5% CO2. Detection reagent (CISBIO) was added and the plates were incubated for 60 min at room temperature. The signal was captured by Envision.
Method for hA2b/CHO: as §1
Method for mA2a/CHO: as §1

Consider `CNC(=O)CCNC(=O)c1nc(-c2ccc3ncc(C)n3c2)c(-c2ncco2)nc1N` [Example 225, 3-amino-N-(3-(methylamino)-3-oxopropyl)-6-(3-methylimidazo[1,2-a]pyridin-6-yl)-5-(oxazol-2-yl)pyrazine-2-carboxamide], for which the IC50 at hA2a/CHO (setting [2]) is 32 nM; on mA2a/CHO (setting [3]), 177 nM; on hA2b/CHO (setting [4]), 254 nM; in assay [1] (setting [5]), more than 10000 nM.
The matching figures for `Cc1cnc2ccc(-c3nc(C(=O)NC[C@@H]4CCCO4)c(N)nc3-n3nccn3)cn12` [Example 226, (S)-3-amino-6-(3-methylimidazo[1,2-a]pyridin-6-yl)-N-((tetrahydrofuran-2-yl)methyl)-5-(2H-1,2,3-triazol-2-yl) pyrazine-2-carboxamide]: 3 nM, 30 nM, 177 nM and 947 nM.
Regarding `Cc1cc(-c2nc(CNC(=O)c3ccccn3)c(N)nc2-c2ccc(F)cc2)cc(C)n1` [Example 8, N-[[3-amino-6-(2,6-dimethylpyridin-4-yl)-5-(4-fluorophenyl)pyrazin-2-yl]methyl]pyridine-2-carboxamide], the IC50 is 116 nM on hA2a/CHO (setting [2]), 390 nM on mA2a/CHO (setting [3]), not below 10000 nM at hA2b/CHO (setting [4]) and 3400 nM in assay [1] (setting [5]).
For `Cc1cnc2ccc(-c3nc(C(=O)NCCN(C)c4ccccc4)c(N)nc3-c3ncco3)cn12` [Example 244, 3-amino-N-(2-(methyl(phenyl)amino)ethyl)-6-(3-methylimidazo[1,2-a]pyridin-6-yl)-5-(oxazol-2-yl)pyrazine-2-carboxamide], the IC50 amounted to 16 nM on hA2a/CHO (setting [2]), 31 nM on mA2a/CHO (setting [3]), 157 nM at hA2b/CHO (setting [4]) and 260 nM in assay [1] (setting [5]).
As for `Cc1cnc2ccc(-c3nc(C(=O)N4CC[C@@H](N(C)C)C4)c(N)nc3-c3ccc(F)cc3)cn12` [Example 203-1, (R)-(3-amino-5-(4-fluorophenyl)-6-(3-methylimidazo[1,2-a]pyridin-6-yl)pyrazin-2-yl)(3-(dimethylamino)pyrrolidin-1-yl)methanone], the IC50 at hA2a/CHO (setting [2]) is 15 nM; on mA2a/CHO (setting [3]), 161 nM; on hA2b/CHO (setting [4]), more than 10000 nM; in assay [1] (setting [5]), 91 nM.
For the compound `COCCCNC(=O)c1nc(-c2ccc3ncc(C)n3c2)c(-c2ncco2)nc1N` [Example 149, 3-amino-N-(3-methoxypropyl)-6-[3-methylimidazo[1,2-a]pyridin-6-yl]-5-(1,3-oxazol-2-yl)pyrazine-2-carboxamide], the IC50 came to 1.5 nM on hA2a/CHO (setting [2]), 7.8 nM on mA2a/CHO (setting [3]), 85 nM on hA2b/CHO (setting [4]) and 1560 nM in assay [1] (setting [5]).
For `COC(C)CNC(=O)c1nc(-c2ccc3ncc(C)n3c2)c(-c2ncco2)nc1N` (single isomer, unassigned; isomer 2) [Example 241, 3-amino-N-(2-methoxypropyl)-6-(3-methylimidazo[1,2-a]pyridin-6-yl)-5-(oxazol-2-yl)pyrazine-2-carboxamide (isomer 2)], the half-inhibitory concentration (IC50) was 4 nM at hA2a/CHO (setting [2]), 27 nM on mA2a/CHO (setting [3]), 205 nM on hA2b/CHO (setting [4]) and 272 nM in assay [1] (setting [5]).
As for `Cn1cc(-c2nc(CNC(=O)c3c(F)cccc3C(F)(F)F)c(N)nc2-c2ccc(F)cc2)ccc1=O` [Example 7, N-[[3-amino-5-(4-fluorophenyl)-6-(1-methyl-6-oxo-1,6-dihydropyridin-3-yl)pyrazin-2-yl]methyl]-2-fluoro-6-(trifluoromethyl)benzamide], the IC50 was 166 nM at hA2a/CHO (setting [2]), 237 nM on mA2a/CHO (setting [3]), 3860 nM at hA2b/CHO (setting [4]) and 98 nM in assay [1] (setting [5]).
As for `COCCNC(=O)c1nc(-c2ccc3ncc(C)n3c2)c(-n2nccn2)nc1N` [Example 243, 3-amino-N-(2-methoxyethyl)-6-(3-methylimidazo[1,2-a]pyridin-6-yl)-5-(2H-1,2,3-triazol-2-yl)pyrazine-2-carboxamide], the IC50 was 7.6 nM on hA2a/CHO (setting [2]), 30 nM on mA2a/CHO (setting [3]), 181 nM on hA2b/CHO (setting [4]) and 92 nM in assay [1] (setting [5]).
Taken in the same sequence, the figures for `Cn1cc(-c2nc(CNC(=O)c3ncccc3OC(F)F)c(N)nc2-c2ccc(F)cc2)ccc1=O` [Example 21, N-[[3-amino-5-(4-fluorophenyl)-6-(1-methyl-6-oxo-1,6-dihydropyridin-3-yl)pyrazin-2-yl]methyl]-3-(difluoromethoxy)pyridine-2-carboxamide] were 98 nM, 73 nM, 638 nM and 18 nM.
Taken in the same sequence, the figures for `COc1cc(F)ccc1CNC(=O)c1nc(-c2cc(C)nc(C)c2)c(-c2ccc(F)cc2)nc1N` [Example 52, 3-amino-6-(2,6-dimethylpyridin-4-yl)-N-(4-fluoro-2-methoxybenzyl)-5-(4-fluorophenyl)pyrazine-2-carboxamide] were 89 nM, 5960 nM, not below 10000 nM and 2630 nM.
With `Cc1cnc2ccc(-c3nc(C(=O)NCc4cccc(N[C@H]5C[C@@H](N(C)C)C5)n4)c(N)nc3-c3ncco3)cn12` [Cmpd. 224, Cis-3-amino-6-[3-methylimidazo[1,2-a]pyridin-6-yl]-5-(1,3-oxazol-2-yl)-N-[(6-[[3-(di-methylamino)cyclobutyl]amino]pyridin-2-yl)methyl]pyrazine-2-carboxamide], the IC50 stood at 3.2 nM at hA2a/CHO (setting [2]), 27 nM at mA2a/CHO (setting [3]), 245 nM at hA2b/CHO (setting [4]) and 7880 nM in assay [1] (setting [5]).
In the case of `Nc1nc(-c2ncco2)c(-c2ccc(=O)[nH]c2)nc1C(=O)NCc1c(F)cccc1F` [Example 105, 3-amino-N-(2,6-difluorobenzyl)-5-(oxazol-2-yl)-6-(6-oxo-1,6-dihydropyridin-3-yl)pyrazine-2-carboxamide], the IC50 on hA2a/CHO (setting [2]) came to 0.1 nM; at mA2a/CHO (setting [3]), 0.8 nM; at hA2b/CHO (setting [4]), 1.8 nM; in assay [1] (setting [5]), 3.5 nM.
In the case of `Cc1cnc2ccc(-c3nc(C(=O)NCc4cccc(N5CCN(C)CC5)n4)c(N)nc3-c3ncco3)cn12` [Example 112, 3-amino-6-(3-methylimidazo[1,2-a]pyridin-6-yl)-N-((6-(4-methylpiperazin-1-yl)pyridin-2-yl)methyl)-5-(oxazol-2-yl)pyrazine-2-carboxamide], the IC50 turned out to be 1.3 nM on hA2a/CHO (setting [2]), 18 nM at mA2a/CHO (setting [3]), 502 nM on hA2b/CHO (setting [4]) and 10000 nM in assay [1] (setting [5]).
As to `Cc1cnc2ccc(-c3nc(C(=O)NC[C@H]4CCCN4)c(N)nc3-c3ncco3)cn12` [Example 122, (R)-3-amino-6-(3-methylimidazo[1,2-a]pyridin-6-yl)-5-(oxazol-2-yl)-N-(pyrrolidin-2-ylmethyl)pyrazine-2-carboxamide], the IC50 on hA2a/CHO (setting [2]) came to 34 nM; on mA2a/CHO (setting [3]) it was 126 nM; on hA2b/CHO (setting [4]) it was 887 nM; in assay [1] (setting [5]), 10000 nM.
For `CN(C)c1cccc(CNC(=O)c2nc(-c3ccc(=O)n(C)c3)c(-c3ncco3)nc2N)n1` [Example 15, 3-amino-N-[[6-(dimethylamino)pyridin-2-yl]methyl]-6-(1-methyl-6-oxo-1,6-dihydropyridin-3-yl)-5-(1,3-oxazol-2-yl)pyrazine-2-carboxamide], the IC50 on hA2a/CHO (setting [2]) was 39 nM; on mA2a/CHO (setting [3]) it was 86 nM; at hA2b/CHO (setting [4]), not below 10000 nM; in assay [1] (setting [5]), 804 nM.
Consider `Cc1cnc2ccc(-c3nc(C(=O)NC[C@@H]4CC(F)(F)CN4C)c(N)nc3-c3ncco3)cn12` [Example 161, (S)-3-amino-N-((4,4-difluoro-1-methylpyrrolidin-2-yl)methyl)-6-(3-methylimidazo[1,2-a]pyridin-6-yl)-5-(oxazol-2-yl)pyrazine-2-carboxamide], for which the IC50 is 0.95 nM at hA2a/CHO (setting [2]), 0.8 nM on mA2a/CHO (setting [3]), 98 nM at hA2b/CHO (setting [4]) and 34 nM in assay [1] (setting [5]).
Regarding `Cc1cnc2ccc(-c3nc(C(=O)NCC4CC(=O)N(C)C4)c(N)nc3-c3ncco3)cn12` (single isomer, unassigned; isomer 2) [Example 210, 3-amino-N-((1-methyl-5-oxopyrrolidin-3-yl)methyl)-6-(3-methylimidazo[1,2-a]pyridin-6-yl)-5-(oxazol-2-yl)pyrazine-2-carboxamide (isomer 2)], the IC50 was found to be 11 nM on hA2a/CHO (setting [2]), 88 nM at mA2a/CHO (setting [3]), 972 nM on hA2b/CHO (setting [4]) and 14700 nM in assay [1] (setting [5]).
Consider `Cc1cc(-c2nc(C(=O)NCc3ncccc3OC(F)F)c(N)nc2-c2ccc(F)cc2)cc(C)n1` [Example 57, 3-amino-N-((3-(difluoromethoxy)pyridin-2-yl)methyl)-6-(2,6-dimethylpyridin-4-yl)-5-(4-fluorophenyl)pyrazine-2-carboxamide], for which the concentration for half-maximal inhibition (IC50) against hA2a/CHO (cAMP & FLIPR IC50 (nM) hA2a) was 41 nM; at mA2a/CHO (cAMP & FLIPR IC50 (nM) mA2a), 278 nM; on hA2b/CHO (cAMP & FLIPR IC50 (nM) hA2b), 1680 nM; in assay [1] (cAMP & FLIPR IC50 (nM) hA1, FLIPR inhibition), 142 nM.
Turning to `Cc1cnc2ccc(-c3nc(C(=O)N[C@@H]4CCCOC4)c(N)nc3-c3ncco3)cn12` (single isomer, unassigned; isomer 2) [Example 164, 3-amino-6-(3-methylimidazo[1,2-a]pyridin-6-yl)-5-(oxazol-2-yl)-N-(tetrahydro-2H-pyran-3-yl)pyrazine-2-carboxamide (isomer 2)], the IC50 is 0.94 nM at hA2a/CHO (setting [2]), 12.7 nM at mA2a/CHO (setting [3]), 479 nM at hA2b/CHO (setting [4]) and more than 10000 nM in assay [1] (setting [5]).
